The source of these data is US4524067A, “Soybean saponins, and a method of isolating the same” (Osaka Chemical Laboratory Co., Ltd., priority 1979, dated 1985).

Where two headings read alike, the source gives them in different places.

Data set [1] relates to lipid peroxides in the heart. The data set can be described thus: Inhibition of formation of lipid peroxides in the heart of Adreamycin-treated mice. Format: in vivo, mice (COF male). To be noted: for Lipid peroxide, heart / Rate of inhibition, heart: n = 5. On the procedure: (§1) It is widely known that Adreamycin, which is an oncostatic, inhibits the synthesis of DNA by combining therewith, and the metabolism of lipids in the heart to cause deposition of lipid peroxides therein, leading to miocardosis.
(§2) (1) The tests were conducted with groups of five COF male mice, five week old, weighing 20 to 25 g each. 15 mg/kg of Adreamycin (product of Kyowa Hakko Kogyo, Japan) were intraperitoneally injected into each mouse (0.15 ml of the medicine per 10 g of mouse weight).
(§3) The administration of each of the medicines to be tested as shown in Table 1 below was started one day prior to the administration of Adreamycin, and continued intraperitoneally for five days at a rate of 0.10 ml per 10 g of mouse weight. All the medicines tested were suspended or emulsified (only vitamin E) in a 0.9% physiological solution of sodium chloride, or a 0.9% physiological solution of sodium chloride containing 1% of Tween 80 immediately before they were applied. All the medicines tested were administered at noon every day, and Adreamycin was given three hours after the administration of the medicines tested. The saponin component of this invention was given in the amount of 1,000 mg/kg, 500 mg/kg, 125 mg/kg, 50 mg/kg, 25 mg/kg and 12.5 mg/kg, vitamin E in the amount of 1,000 mg/kg and 250 mg/kg, and vitamin B2 in the amount of 1,000 mg/kg, while a 0.9% physiological solution of sodium chloride was given to the mice of the control group.
(§4) (2) On the sixth day, each mouse was killed by dislocation of the cervical vertebrae, and its heart and liver were picked out immediately. After their wet weights were measured, a 2% homogenate was prepared with a 0.9% physiological solution of sodium chloride by a Potter homogenizer made of Teflon while it was being cooled with ice.
(§5) 0.5 ml of a 3% aqueous solution of sodium lauryl sulfate was added into 0.2 ml of the aforementioned 2% homogenate, and they were mixed together by shaking for 30 seconds. Then, 1.5 ml of an acetic acid buffer solution having a pH value of 3.6, and 1.5 ml of a 0.8% solution of thiobarbituric acid were added thereinto, followed by addition of distilled water to make a total of 4.0 ml. After the resulting solution was shaked vigorously for 30 seconds, it was heated at 95° C. for an hour in an oil bath, and cooled with flowing water for five minutes. Then, 1.0 ml of 0.2N hydrochloric acid and 5.0 ml of a mixed solution of n-butanol and pyridine (15:1) were added into the solution, and after it was shaked violently, it was subjected to centrifugal separation at 3,000 rpm for 15 minutes, whereby the top n-butanol layer was separated, and its fluorescence spectrum was measured by a spectrophotofluorometer (Ex 515 nm and Em 553 nm). […] The quantity of lipid peroxides was obtained by applying the working curve to the values as actually measured.
(§6) The rate of inhibition of the formation of lipid peroxides was obtained in accordance with the following equation to compare the effects of the various medicines tested, and the quantities thereof employed, as shown in Table 1: [formula] wherein A: the concentration of lipid peroxides in the group of mice to which no Adreamycin had been given;
(§7) D: the concentration of lipid peroxides in the groups of mice to which both Adreamycin and the medicines to be tested had been administered.
(§8) Note: The rate of inhibition by each dosage was calculated by comparison with the values shown for the respective test numbers in the control group (i.e., applying the values of C shown for the control group).

Data set [2] is described as follows: Antioxidizing action for salad oil (lipid peroxide, Yagi's method). As to conditions: 180° C. for 40 min. On the procedure: Salad oil: Product of Nisshin Seiyu Co., Ltd., Japan.
Test oils were prepared by using various kinds of saponin components which were added into the salad oil in the amounts of 1 mg/ml and 0.1 mg/ml. These test oils and a control oil containing no saponin component were heated at 180° C. for 40 minutes, while oxygen was being blown thereinto. After they were cooled, the quantities of the lipid peroxides formed in the oils were determined by the Yagi's method [K. Yagi, Biochemie.

A short description of data set [3]: pH / acidity of aqueous solution. Format: physicochemical.
The next data set in a line: Solubility. The class given is physicochemical.
Data set [4] deals with lipid peroxides in the liver. The data set can be described thus: Inhibition of formation of lipid peroxides in the liver of Adreamycin-treated mice. Format: in vivo, mice (COF male). To be noted: n = 5. On the procedure: as §1, §2, §3, §4, §5, §6, §7, §8
Data set [5] concerns formation of lipid peroxides. As to conditions: prior art statement, cited from earlier work.
For data set [6] the following is noted: prior art statement; cited from earlier work.
For data set [7] the following is noted: prior art statement; cited from earlier work. This is another data set of the same source.

For the compound `COc1cccc2c1C(=O)c1c(O)c3c(c(O)c1C2=O)C[C@@](O)(C(=O)CO)C[C@@H]3O[C@H]1C[C@H](N)[C@H](O)[C@H](C)O1` [Adreamycin], the “Effect of Adreamycin on lipid peroxides” value in data set [1] (15 mg/kg i.p., heart and liver, mice) was “increases the lipid peroxides in the heart and liver”.
In the case of `CC1(C)C[C@H]2C3=CC[C@@H]4[C@@]5(C)CC[C@H](O[C@@H]6O[C@H](C(=O)O)[C@@H](O)[C@H](O)[C@H]6O[C@@H]6O[C@H](CO)[C@H](O)[C@H](O)[C@H]6O[C@@H]6O[C@H](CO)[C@@H](O)[C@H](O)[C@H]6O)[C@](C)(CO)[C@@H]5CC[C@@]4(C)[C@]3(C)CC[C@@]2(C)[C@H](O[C@@H]2OC[C@H](O)[C@H](O[C@@H]3O[C@H](CO)[C@@H](O)[C@H](O)[C@H]3O)[C@H]2O)[C@@H]1O` [Soyasaponin A1, 3-O-[β-D-glucopyranosyl(1→2)-β-D-galactopyranosyl-(1→2)-β-D-glucuronopyranosyl]-22-O-[β-D-glucopyranosyl(1→3)-α-L-arabinopyranosyl]-soyasapogenol A], in data set [2] (0.1 mg/ml), the “Quantity of lipid peroxide” value came out at 22.5 nmol/mL and the “Rate of inhibition of increase in lipid peroxide” value (“Rate of inhibition of increase” for short) worked out at 74.8%. In addition, in data set [2] (1 mg/ml), the “Quantity of lipid peroxide” value is 13.8 nmol/mL and the “Rate of inhibition of increase” value was 91.5%. In data set [3] (10 mg in 1 ml of water), the “pH value of aqueous solution” value amounted to 6. Besides, the Solubility result in the data set “Solubility” was “easily soluble in methanol, soluble in water, pyridine, dimethyl sulfoxide and ethanol, and insoluble in acetone, chloroform and ether”.
Regarding `CC1(C)C[C@H]2C3=CC[C@@H]4[C@@]5(C)CC[C@H](O[C@@H]6O[C@H](C(=O)O)[C@@H](O)[C@H](O)[C@H]6O[C@@H]6O[C@H](CO)[C@H](O)[C@H](O)[C@H]6O)[C@](C)(CO)[C@@H]5CC[C@@]4(C)[C@]3(C)CC[C@@]2(C)[C@H](O[C@@H]2OC[C@H](O)[C@H](O[C@@H]3O[C@H](CO)[C@@H](O)[C@H](O)[C@H]3O)[C@H]2O)[C@@H]1O` [Soyasaponin A2, 3-O-[β-D-galactopyranosyl-(1→2)-β-D-glucuronopyranosyl]-22-O-[β-D-glucopyranosyl (1→3)-α-L-arabinopyranosyl]-soyasapogenol A], in data set [2] (0.1 mg/ml), the “Quantity of lipid peroxide” value was determined as 60.0 nmol/mL and the “Rate of inhibition of increase” value is on record as 2.5%. Moreover, in data set [2] (1 mg/ml), the “Quantity of lipid peroxide” value is 38.8 nmol/mL and the “Rate of inhibition of increase” value is recorded as 43.4%. The “pH value of aqueous solution” value in data set [3] (5 mg in 1 ml of water) stood at 6. Also, in the data set “Solubility”, the Solubility result was “easily soluble in methanol, soluble in water, pyridine, dimethyl sulfoxide and ethanol, and insoluble in acetone, chloroform and ether”.
`C[C@@H]1O[C@@H](O[C@H]2[C@H](O[C@H]3[C@H](O[C@H]4CC[C@@]5(C)[C@@H](CC[C@]6(C)[C@@H]5CC=C5[C@@H]7CC(C)(C)C[C@@H](O)[C@]7(C)CC[C@]56C)[C@@]4(C)CO)O[C@H](C(=O)O)[C@@H](O)[C@@H]3O)O[C@H](CO)[C@H](O)[C@@H]2O)[C@H](O)[C@H](O)[C@H]1O` [Soyasaponin I, 3-O-[α-L-rhamnopyranosyl(1→2)-β-D-galactopyranosyl(1→2)-β-D-glucuronopyranosyl]-soyasapogenol B]: in data set [2] (0.1 mg/ml), the “Quantity of lipid peroxide” value is 45.6 nmol/mL and the “Rate of inhibition of increase” value is given as 30.3%. In addition, in data set [2] (1 mg/ml), the “Quantity of lipid peroxide” value amounted to 10.6 nmol/mL and the “Rate of inhibition of increase” value is 97.7%.
For the compound `C[C@@H]1O[C@@H](O[C@H]2[C@H](O[C@H]3[C@H](O[C@H]4CC[C@@]5(C)[C@@H](CC[C@]6(C)[C@@H]5CC=C5[C@@H]7CC(C)(C)C[C@@H](O)[C@]7(C)CC[C@]56C)[C@@]4(C)CO)O[C@H](C(=O)O)[C@@H](O)[C@@H]3O)OC[C@H](O)[C@@H]2O)[C@H](O)[C@H](O)[C@H]1O` [Soyasaponin II, 3-O-[α-L-rhamnopyranosyl(1→2)-α-L-arabinopyranosyl(1→2)-β-D-glucuronopyranosyl]-soyasapogenol B], in data set [2] (0.1 mg/ml), the “Quantity of lipid peroxide” value turned out to be 46.3 nmol/mL and the “Rate of inhibition of increase” value is on record as 28.9%. In data set [2] (1 mg/ml), the “Quantity of lipid peroxide” value was 80.6 nmol/mL and the “Rate of inhibition of increase” value is on record as -37.2%.
With `CC1(C)C[C@@H](O)[C@]2(C)CC[C@]3(C)C(=CC[C@@H]4[C@@]5(C)CC[C@H](O[C@@H]6O[C@H](C(=O)O)[C@@H](O)[C@H](O)[C@H]6O[C@@H]6O[C@H](CO)[C@H](O)[C@H](O)[C@H]6O)[C@](C)(CO)[C@@H]5CC[C@]43C)[C@@H]2C1` [Soyasaponin III, 3-O-[β-D-galactopyranosyl(1→2)-β-D-glucuronopyranosyl]-soyasapogenol B], the results for the “Quantity of lipid peroxide” value in data set [2] (0.1 mg/ml) and in data set [2] (1 mg/ml) were 45.6 nmol/mL and 8.8 nmol/mL, respectively. Besides, the “Rate of inhibition of increase” value turned out to be 30.3% in data set [2] (0.1 mg/ml) and 101.2% in data set [2] (1 mg/ml).
As to `Cc1cc2nc3c(=O)[nH]c(=O)nc-3n(C[C@H](O)[C@H](O)[C@H](O)CO)c2cc1C` [Vitamin B2, riboflavin], in data set [4] (1000 mg/kg i.p., test No. I), the “Lipid peroxide, liver” value is listed as 124.84 ± 10.26 nmol/g and the “Rate of inhibition, liver” value amounted to 21.28. In data set [5] (compared with vitamin E), the “Power of inhibiting the formation of lipid peroxides” value was “extremely lower power of inhibiting the formation of lipid peroxides than vitamin E”. For the same compound, in data set [1] (1000 mg/kg i.p., test No. I), the “Lipid peroxide, heart” value was found to be 153.61 ± 11.12 nmol/g and the “Rate of inhibition, heart” value is reported as 40.81.
`Cc1c(C)c2c(c(C)c1O)CCC(C)(CCCC(C)CCCC(C)CCCC(C)C)O2` (stereo not drawn) [Vitamin E, α-tocopherol]: the “Lipid peroxide, liver” value in data set [4] (250 mg/kg i.p., test No. II) is given as 76.90 ± 8.15 nmol/g; in data set [4] (1000 mg/kg i.p., test No. I), 89.27 ± 26.33 nmol/g. The “Rate of inhibition, liver” value was determined as 94.79 in data set [4] (250 mg/kg i.p., test No. II) and 75.95 in data set [4] (1000 mg/kg i.p., test No. I). The “Effectiveness for inhibiting the formation of lipid peroxides” value in data set [5] is “effective agent for inhibiting the formation of lipid peroxides”. Further, the “Storage in the body and side effects” value in data set [6] was “stored in the body for a long period of time, and produces side effects”. Besides, the Solubility entry in data set [7] is “insoluble in water and soluble in oil”. Moreover, the “Lipid peroxide, heart” value in data set [1] (250 mg/kg i.p., test No. II) was 86.34 ± 12.61 nmol/g; in data set [1] (1000 mg/kg i.p., test No. I), 106.87 ± 36.40 nmol/g. The “Rate of inhibition, heart” value turned out to be 101.98 in data set [1] (250 mg/kg i.p., test No. II) and 82.61 in data set [1] (1000 mg/kg i.p., test No. I).
